Results reported in patent publication US20100330588A1, “METHOD TO QUANTIFY METHYLTRANSFERASE ACTIVITY” (Utah State University, priority 2009, published 2010).

Tested on: Histone H3.3
Test: methylation of Histone H3.3 by PRMT6 fusion proteins, reverse phase resin method of scheme 2
Format: biochemical
Settings: 500 nM enzyme; 1.7 μM Histone H3.3; 37° C.
Method: Assays were performed at 37° C., in a final volume of 125 μl. Each assay contained 1.0 μM unlabeled S-adenosyl-L-methionine (AdoMet), […] S-adenosyl-L-[methyl-^3H]methionine (specific activity 67.3 Ci/mmol, 0.55 μCi/μl, Perkin Elmer), 100 mM Hepes, 0.38 μM bovine serum albumin (BSA), 10% glycerol, 10 nM AdoHcy Nucleosidase (MTAN), and 1.7 μM protein substrate; pH of reaction was 7.6. […] Samples (10 μL) were removed at specified times and were analyzed using either SDS-PAGE or methods related to the present disclosure, as discussed below.
A 10 µL aliquot of the reaction mixture was transferred to 6 μl of sample preparation buffer (8 M Guanidine-HCL in 2.5% trifluoroacetic acid (TFA)), making the final concentrations 3 M Guanidine-HCL and 0.94% TFA in the mixture. Guanidine-HCl denatures the protein and TFA makes the reaction very acidic so that PRMT activity is quenched. […] Eluate was dispensed into 20 ml of scintillation cocktail (Fisher Scientific) and counted in a LSC.
Referring now to FIG. 4, there is shown the comparison of the methylation activities of GST-PRMT6 and His-PRMT6 using the method disclosed in scheme 2. […] The reactions were processed and counted in scintillation cocktail.

His-PRMT6: His-tagged PRMT6 protein arginine methyltransferase expressed in E. coli BL21 and purified
fold higher methylation activity compared to GST-PRMT6: 5 fold
